Numbers after ± are expanded uncertainties.
Test: refractive index (other wavelength) (dimensionless); xn = mol fraction of the nth substance listed
Settings: 94.64 kPa, Liquid, Standard Abbe refractometry, x1 = 1

CC(O)CO (stereo not drawn) [1,2-propanediol] + OCCCO
refractive index
Settings | Wavelength=404.7 nm | Wavelength=435.8 nm | Wavelength=486.1 nm | Wavelength=546.1 nm | Wavelength=587.6 nm | Wavelength=632.8 nm | Wavelength=644 nm | Wavelength=706.5 nm
293.15 K | 1.445 ± 0.002 | 1.44204 ± 0.002 | 1.43722 ± 0.002 | 1.43406 ± 0.002 | 1.43227 ± 0.002 | 1.43023 ± 0.002 | 1.43008 ± 0.002 | 1.42866 ± 0.002
298.15 K | 1.4429 ± 0.002 | 1.43967 ± 0.002 | 1.43566 ± 0.002 | 1.43245 ± 0.002 | 1.4305 ± 0.002 | 1.429 ± 0.002 | 1.4289 ± 0.002 | 1.42701 ± 0.002
303.15 K | 1.44135 ± 0.002 | 1.43785 ± 0.002 | 1.43417 ± 0.002 | 1.43096 ± 0.002 | 1.42927 ± 0.002 | 1.42774 ± 0.002 | 1.42734 ± 0.002 | 1.42571 ± 0.002
308.15 K | 1.43955 ± 0.002 | 1.43622 ± 0.002 | 1.43239 ± 0.002 | 1.42919 ± 0.002 | 1.42752 ± 0.002 | 1.426 ± 0.002 | 1.42565 ± 0.002 | 1.42397 ± 0.002
313.15 K | 1.43771 ± 0.002 | 1.43437 ± 0.002 | 1.43055 ± 0.002 | 1.42738 ± 0.002 | 1.42572 ± 0.002 | 1.4242 ± 0.002 | 1.42386 ± 0.002 | 1.42219 ± 0.002
318.15 K | 1.43584 ± 0.002 | 1.43252 ± 0.002 | 1.42875 ± 0.002 | 1.42557 ± 0.002 | 1.42392 ± 0.002 | 1.42243 ± 0.002 | 1.42208 ± 0.002 | 1.42043 ± 0.002

Source: the NIST ThermoML archive (doi:10.1016/j.jct.2016.01.019)
